Reference: US20040067904A1, “Gene therapy for prostate cancer: sensibilization of cells to dna damaging drugs and radiation” (priority 2003, published 2004)

Assays:
[1] = test system: LNCaP cells; test: Annexin V cell death assay (flow cytometry); assay type: cell-based, human; details: parental LNCaP cells and un-induced LNCaP-DBD sublines; etoposide 10 μM; 24 h
Procedure: Surface expression of phosphadtidyl serine was determined by Annexin V staining (Trevigen) according to the manufacturer's recommendations. Briefly, LNCaP cells (2-5×10^5) were harvested, washed in PBS and exposed to FITC-labeled Annexin V. To exclude staining of phosphadtidyl serine on the inner surface of the cell membrane, indicative of cytoplasmic membrane disintegration, cells were counterstained with propidium iodite. FITC-Annexin V and propidium iodite staining was determined using a FACStar Plus flow cytometer (Becton Dickinson FACS System). Apoptotic cells were defined as FITC positive and PI negative.

[2] = test system: LNCaP cells stably transfected with pPSA (e/p)-DBD/F; test: Androgen-regulated PARP-DBD expression (Western blot, RT-PCR, in situ immunofluorescence) in stably transfected LNCaP cells; assay type: cell-based, human; details: R1881 0-10 nM, 24 hours, charcoal-stripped serum for seven days
Procedure: The androgen responsive prostate carcinoma LNCaP and androgen independent PC-3 cell lines were obtained from American Type Culture Collection (Manassas, Va.) and maintained by serial passage in DMEM supplemented with 10% fetal bovine serum, 100 units/ml penicillin, and 100 μg/ml streptomycin at 37° C. in an atmosphere of 5% CO2 in air. Cells subjected to androgen stimulation tests were maintained in media with 10% charcoal-stripped fetal bovine serum for seven days before the addition of synthetic androgen R1881 (Perkin Elmer Life Science). […]
RNA was isolated from cells using TRIzol Reagent (Gibco) according to manufacturer's protocol. […] The amplified RT-PCR products were analyzed by 1% agarose gel electrophoresis, visualized by ethidium bromide staining and photographed under UV illumination.
Immunodetection of PARP-DBD Flag-fusion protein in human prostate carcinoma cells was performed as previously described (Soldatenkov et al., Cancer J Sci. Am., 3: 13-20 (1997)). […] Insoluble material was removed by centrifugation at […] for 30 min at 16,000×g and protein concentrations were determined using the “Micro BCA protein assay” (Pierce). […] Signals were detected using the enhanced chemiluminescence system (Amersham). […]

[3] = test system: plasmid DNA fragments; test: Atomic force microscopy of PARP / PARP-DBD interaction with DNA; assay type: binding
Procedure: DNA samples or PARP-DNA binding reaction product in Mg^2+containing buffer were deposited on an […] mica surface, allowed to adsorb for 1 min, rinsed with deionized water, and dried in a gentle nitrogen flow. The AFM images were obtained using a NanoScope IIIa instrument equipped with E-scanner (Digital Instruments, Santa Barbara, Calif.) operating in a tapping mode in air as described (Smulson et al., Cancer Res., 58: 3495-3498 (1998)). The tapping frequency of the 125 μm silicon cantilever was 300-400 KHz and the nominal scanning rate was set at 1-2 Hz. No less than 150 uncomplexed DNA molecules and 100 of PARP-DNA complexes were analyzed in each experiment.

## COc1cc([C@@H]2c3cc4c(cc3[C@@H](O[C@@H]3O[C@@H]5CO[C@@H](C)O[C@H]5[C@H](O)[C@H]3O)[C@H]3COC(=O)[C@H]23)OCO4)cc(OC)c1O [etoposide]
[1]
  annexin V-binding activity (early apoptotic changes): only modest increase

## C[C@]1(O)CC[C@H]2[C@@H]3CCC4=CC(=O)CCC4=C3C=C[C@@]21C [R1881]
[2]
  stimulation of PARP-DBD expression at levels of mRNA and protein: dose-dependent stimulation

## Poly(ADP-ribose) polymerase [recombinant full length PARP]
[3]; absence of NAD+
  binding to DNA fragments (AFM): bound plasmid DNA fragments and linked them into chainlike structures
[3]; presence of NAD+
  binding to DNA fragments (AFM): dissociated from the DNA fragments
